Measurements published in patent US10028992B2, “Methods of treating muscular dystrophy” (BOARD OF REGENTS OF THE NEVADA SYSTEM OF HIGHER EDUCATION …, priority 2012, dated 2018).
Values joined by “and” are separate entries in the source; they are usually repeats but may differ in a detail not shown here. Equal entries are not always repeated. Values belong to the compound of their own block, whether it stands above or below them.

Test system: α7 integrin promoter
Experiment: muscle cell-based assay: α7βgal+/− myoblasts/myotubes, LacZ reporter, β-galactosidase cleavage of FDG
Set-up: species or system mouse; Results in α7+/− β-galactosidase assay: scale not given here
Settings: for Results in α7+/− β-galactosidase assay: Myoblasts; for EC50 / AC50: Mus musculus; for EC50: given as log AC50 (negative values), read-out: Fit LogAC50 (converted); for Fit Curve Class: key not given; for Results in a α7+/− β-galactosidase assay, Myotubes, 0.5 uM: compound at 0.5 uM; for Results in a α7+/− β-galactosidase assay, Myotubes, 1 uM: compound at 1 uM; for Results in a α7+/− β-galactosidase assay, Myotubes, 5 uM: compound at 5 uM; for Results in a α7+/− β-galactosidase assay, Myotubes, 10 uM: compound at 10 uM; for Results in a α7+/− β-galactosidase assay, Myotubes, 20 uM: compound at 20 uM; for Results in a α7+/− β-galactosidase assay, Myotubes, 40 uM: compound at 40 uM; for AC50: log of AC50, given with negative sign, unit of AC50 not given, read-out: Fit Log AC50 (converted)
Method in brief: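 Primary α7βgal+/− mouse myoblasts (LacZ knocked into α7 integrin exon 1, promoter retained), differentiated; promoter activity read as β-galactosidase conversion of non-fluorescent FDG to fluorescein. Hits followed by dose-response, western analysis and myostatin counterscreen.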

[1] = curve fit, activity at zero concentration
[2] = Table 12, fitted activity at zero concentration
[3] = Table 12 Compound data, concentration-response curve fit

Structure (SMILES): Cn1c(-c2ccccc2)cc2ccccc21 [drawing 627]
Results in α7+/− β-galactosidase assay (0.5 uM): 0.02349 | Results in α7+/− β-galactosidase assay (1 uM): −0.0996 | Results in α7+/− β-galactosidase assay (5 uM): −0.05693 | Results in α7+/− β-galactosidase assay (10 uM): −0.02616 | Results in α7+/− β-galactosidase assay (20 uM): −0.2661 | Results in α7+/− β-galactosidase assay (40 uM): −0.4026

Structure (SMILES): C=CCc1c(C)nc(-c2ccccc2)nc1N/N=C(\C)c1ccc(N)cc1 [drawing 662]
Results in α7+/− β-galactosidase assay (0.5 uM): −0.00814 | Results in α7+/− β-galactosidase assay (1 uM): −0.05498 | Results in α7+/− β-galactosidase assay (5 uM): 0.04244 | Results in α7+/− β-galactosidase assay (10 uM): 0.0834 | Results in α7+/− β-galactosidase assay (20 uM): −0.05956 | Results in α7+/− β-galactosidase assay (40 uM): −0.02989

EC50: 11.2 µM
Structure (SMILES): C=CCc1c(C)nc(-c2ccccc2)nc1N/N=C/c1ccccc1 [Compound 213]
Score (Table 12 compound data): 42 | Fit Curve Class (curve class number): 2.1 | Fit HillSlope (curve fit): 1.2876 | Fit Zero Activity [%] [1]: −1.0122%

EC50: 8.91 µM
Structure (SMILES): CC(=O)c1cccc(NC(=O)C(=O)Nc2cccc3ccccc23)c1 [Compound 197]
Score (Table 12 compound data): 42 | Fit Curve Class (curve class number): 2.2 | Fit HillSlope (curve fit): 0.9 | Fit Zero Activity [%] [1]: 1.5%

Structure (SMILES): Cc1ccc(C(=O)N2CCN(S(=O)(=O)N3CCOCC3)CC2)cc1 [drawing 642]
Results in α7+/− β-galactosidase assay (0.5 uM): 0.1086 | Results in α7+/− β-galactosidase assay (1 uM): −0.02563 | Results in α7+/− β-galactosidase assay (5 uM): 0.3985 | Results in α7+/− β-galactosidase assay (10 uM): −0.06877 | Results in α7+/− β-galactosidase assay (20 uM): −0.07784 | Results in α7+/− β-galactosidase assay (40 uM): −0.1672

Structure (SMILES): CC(C)c1ccc(NC(=O)CN2C(=O)c3ccccc3S2(=O)=O)cc1 [drawing 399]
Results in a α7+/− β-galactosidase assay, Myotubes, 0.5 uM: −0.1815 | Results in a α7+/− β-galactosidase assay, Myotubes, 1 uM: −0.0433 | Results in a α7+/− β-galactosidase assay, Myotubes, 5 uM: 0.02954 | Results in a α7+/− β-galactosidase assay, Myotubes, 10 uM: −0.2491 | Results in a α7+/− β-galactosidase assay, Myotubes, 20 uM: −0.1353 | Results in a α7+/− β-galactosidase assay, Myotubes, 40 uM: −0.1392

Structure (SMILES): CC(C)c1ccc(NC(=O)CN2C(=O)c3ccccc3S2(=O)=O)cc1 [drawing 607]
Results in α7+/− β-galactosidase assay (0.5 uM): −0.1297 | Results in α7+/− β-galactosidase assay (1 uM): −0.1704 | Results in α7+/− β-galactosidase assay (5 uM): 0.367 | Results in α7+/− β-galactosidase assay (10 uM): −0.05458 | Results in α7+/− β-galactosidase assay (20 uM): −0.03658 | Results in α7+/− β-galactosidase assay (40 uM): −0.09806

Structure (SMILES): Oc1nc2ccccc2nc1-c1c[nH]c2ccccc12 [drawing 417]
Results in a α7+/− β-galactosidase assay, Myotubes, 0.5 uM: −0.06072 | Results in a α7+/− β-galactosidase assay, Myotubes, 1 uM: −0.2204 | Results in a α7+/− β-galactosidase assay, Myotubes, 5 uM: −0.08742 | Results in a α7+/− β-galactosidase assay, Myotubes, 10 uM: 0.05064 | Results in a α7+/− β-galactosidase assay, Myotubes, 20 uM: −0.4132 | Results in a α7+/− β-galactosidase assay, Myotubes, 40 uM: −0.2613

Structure (SMILES): O=C(NCc1ccccc1)C(c1c(F)cccc1Cl)N(C(=O)c1csnn1)C1CC1 (stereo not shown) [drawing 638]
Results in α7+/− β-galactosidase assay (0.5 uM): 0.05089 | Results in α7+/− β-galactosidase assay (1 uM): −0.04686 | Results in α7+/− β-galactosidase assay (5 uM): −0.06939 | Results in α7+/− β-galactosidase assay (10 uM): −0.1188 | Results in α7+/− β-galactosidase assay (20 uM): 0.4333 | Results in α7+/− β-galactosidase assay (40 uM): −0.4316

Structure (SMILES): CCCN(C(=O)c1ccc(S(=O)(=O)N2CCCC2)cc1)C1CCS(=O)(=O)C1 (stereo not shown) [Compound 89]
AC50 (Table 12): 5.01 µM | Fit HillSlope (Table 12, curve fit): 1.6924 | Fit Zero Activity [%] [2]: −10.8957% | Fit Curve Class (Table 12): 2.2 | Score [3]: 43

Structure (SMILES): COc1ccc(-n2c(C)c(C(C)=O)c3cc(OC(C)=O)ccc32)cc1 [Compound 59]
AC50 (Table 12): 10 µM | Fit HillSlope (Table 12, curve fit): 3.5722 | Fit Zero Activity [%] [2]: −3.6299% | Fit Curve Class (Table 12): 2.1 | Score [3]: 45

Structure (SMILES): CC(C)Oc1cccc(C(=O)Nc2ccc(CN3CCOCC3)cc2)c1 [drawing 563]
Results in α7+/− β-galactosidase assay (0.5 uM): −0.0458 | Results in α7+/− β-galactosidase assay (1 uM): −0.04183 | Results in α7+/− β-galactosidase assay (5 uM): 0.01603 | Results in α7+/− β-galactosidase assay (10 uM): 0.2092 | Results in α7+/− β-galactosidase assay (20 uM): 0.7886 | Results in α7+/− β-galactosidase assay (40 uM): −0.0962

EC50: 5.62 µM
Structure (SMILES): COc1cccc(NC(=O)c2ccc3c(c2)CCCC3)c1 [Compound 162]
Score (Table 12 compound data): 42 | Fit Curve Class (curve class number): 2.1 | Fit HillSlope (curve fit): 2.2526 | Fit Zero Activity [%] [1]: −31.8121%

EC50: 10 µM
Structure (SMILES): COc1cc(NC(=O)CN(C)S(=O)(=O)c2ccc3c(c2)CC(C)N3C(C)=O)cc(OC)c1OC (stereo not shown) [Compound 145]
Score (Table 12 compound data): 42 | Fit Curve Class (curve class number): 2.2 | Fit HillSlope (curve fit): 4.9549 | Fit Zero Activity [%] [1]: 0.4668%

Structure (SMILES): Cc1ccc(NS(=O)(=O)c2cccc(C(=O)O)c2)cc1S(=O)(=O)N1CCOCC1
Results in a α7+/− β-galactosidase assay, Myotubes, 5 uM: 0.6308 and 0.5052
